The results in this text go back to patent publication US12185723B2, “Herbicidally active 3-phenylisoxazoline-5-carboxamides of s-containing cyclopentenylcarboxylic esters” (Bayer Aktiengesellschaft, priority 2019, dated 2025).

Each structure is given as a SMILES string.

Common to all, as to assay type: in vivo
The test system of test [1] is Abutilon theophrasti. The test can be described thus: Post-emergence herbicidal action against ABUTH. The following applies: 20 g a.i./ha, visual rating about 3 weeks after treatment. The procedure:
(§1) Post-Emergence Herbicidal Action Against Harmful Plants and Crop Plant Compatibility Seeds of monocotyledonous and dicotyledonous weeds and crop plants are placed in sandy loam in plastic or wood-fibre pots, covered with soil and cultivated in a greenhouse under controlled growth conditions. 2 to 3 weeks after sowing, the test plants are treated at the one-leaf stage. The compounds of the invention, formulated in the form of wettable powders (WP) or as emulsion concentrates (EC), are then sprayed onto the green parts of the plants as aqueous suspension or emulsion with addition of 0.5% additive at a water application rate of 600 l/ha (converted). After the test plants have been kept in the greenhouse under optimum growth conditions for about 3 weeks, the activity of the preparations is rated visually in comparison to untreated controls. For example, 100% activity=the plants have died, 0% activity=like control plants. [table]

Test [2] relates to Alopecurus myosuroides. The test can be described thus: Post-emergence herbicidal action against ALOMY. The following applies: 20 g a.i./ha, visual rating about 3 weeks after treatment. The essentials:
(§2)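 Sow in sandy loam; greenhouse; spray at one-leaf stage (2–3 wk after sowing). WP/EC formulation, 0.5% additive, 600 l/ha water. Visual rating ~3 wk later vs untreated; 100% = dead.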

For test [3], the system named is DIGSA. The test can be described thus: Post-emergence herbicidal action against DIGSA. Conditions: 20 g a.i./ha, visual rating about 3 weeks after treatment. The essentials: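 Greenhouse-grown plants sprayed at one-leaf stage (2–3 weeks after sowing) with WP or EC formulations as aqueous suspension/emulsion plus 0.5% additive, 600 l/ha water. Activity rated visually about 3 weeks later versus untreated controls, 100% = plants dead, 0% = like controls.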

Test [4] deals with Setaria viridis. The test can be described thus: Post-emergence herbicidal action against SETVI. The following applies: 20 g a.i./ha, visual rating about 3 weeks after treatment. Put shortly: as §2
For test [5], the system named is Pharbitis purpurea. The test can be described thus: Post-emergence herbicidal action against PHBPU. Conditions: 20 g a.i./ha. The essentials: as §2
In test [6] the test system is Lolium rigidum. The test can be described thus: Post-emergence herbicidal action against LOLRI. The following applies: 20 g a.i./ha, visual rating about 3 weeks after treatment. The essentials: as §2
The subject of test [7] is Echinochloa crus-galli. The test can be described thus: Post-emergence herbicidal action against ECHCG. Conditions: 20 g a.i./ha, visual rating about 3 weeks after treatment. Put shortly:
as §2

Test [8] deals with Avena fatua. The test can be described thus: Post-emergence herbicidal action against AVEFA. The following applies: 20 g a.i./ha, visual rating about 3 weeks after treatment. The essentials: as §2
Test [9] has as its system Polygonum convolvulus. The test can be described thus: Post-emergence herbicidal action against POLCO. Conditions: 20 g a.i./ha. Put shortly: as §2
The subject of test [10] is Veronica persica. The test can be described thus: Post-emergence herbicidal action against VERPE. Conditions: 20 g a.i./ha. The essentials:
as §2

Test [11] has as its system Amaranthus retroflexus. The test can be described thus: Post-emergence herbicidal action against AMARE. The following applies: 20 g a.i./ha. Put shortly:
as §2

Test [12] deals with Matricaria inodora. The test can be described thus: Post-emergence herbicidal action against MATIN. Conditions: 20 g a.i./ha. The procedure: as §1

`COC1(C(=O)NC2C=CC(C(=O)OCCSC(=O)C(C)C)C2)CC(c2cc(F)cc(F)c2)=NO1` (stereo not drawn) [Example I-23]: the “Herbicidal action against [%] ABUTH” value in test [1] is 80%. Besides, the “Herbicidal action against [%] ALOMY” value in test [2] came to 90%. The “Herbicidal action against [%] DIGSA” value in [3] was 90%. Further, the “Herbicidal action against [%] SETVI” value in [4] is listed as 80%. Also, in [5], the “Herbicidal action against [%] PHBPU” value turned out to be 80%. For the same compound, the “Herbicidal action against [%] LOLRI” value in test [6] was 90%. Also, the “Herbicidal action against [%] ECHCG” value in test [7] is 90%. In [8], the “Herbicidal action against [%] AVEFA” value was 90%. In [9], the “Herbicidal action against [%] POLCO” value worked out at 80%. In addition, the “Herbicidal action against [%] VERPE” value in test [10] came out at 90%. The “Herbicidal action against [%] AMARE” value in test [11] is reported as 80%. Also, the “Herbicidal action against [%] MATIN” value in [12] was found to be 80%.

In the case of `COC1(C(=O)NC2C=CC(C(=O)OCCSC(=O)N(C)C)C2)CC(c2cc(F)cc(F)c2)=NO1` (stereo not drawn) [Example I-24], the “Herbicidal action against [%] ABUTH” value in [1] came to 80%. In addition, the “Herbicidal action against [%] ALOMY” value in [2] was determined as 80%. The “Herbicidal action against [%] DIGSA” value in test [3] is listed as 80%. Besides, the “Herbicidal action against [%] SETVI” value in test [4] was determined as 90%. For the same compound, the “Herbicidal action against [%] PHBPU” value in [5] was determined as 80%. Besides, the “Herbicidal action against [%] LOLRI” value in test [6] is 90%. Moreover, in test [7], the “Herbicidal action against [%] ECHCG” value was 90%. Besides, the “Herbicidal action against [%] AVEFA” value in [8] stood at 90%. Moreover, in test [9], the “Herbicidal action against [%] POLCO” value was 80%. In addition, the “Herbicidal action against [%] VERPE” value in [10] is reported as 100%. Moreover, the “Herbicidal action against [%] AMARE” value in test [11] is on record as 90%. For the same compound, the “Herbicidal action against [%] MATIN” value in [12] was 80%.

For the compound `C=CCSCCOC(=O)C1C=CC(NC(=O)C2(C)CC(c3cc(F)cc(F)c3)=NO2)C1` (stereo not drawn) [Example I-11], the “Herbicidal action against [%] ABUTH” value in test [1] is recorded as 90%. The “Herbicidal action against [%] ALOMY” value in [2] came out at 100%. Besides, the “Herbicidal action against [%] DIGSA” value in test [3] is on record as 90%. In addition, the “Herbicidal action against [%] SETVI” value in test [4] worked out at 90%. Besides, the “Herbicidal action against [%] PHBPU” value in test [5] is on record as 80%. In addition, the “Herbicidal action against [%] LOLRI” value in test [6] came out at 100%. Moreover, the “Herbicidal action against [%] ECHCG” value in [7] is 90%. Further, the “Herbicidal action against [%] AVEFA” value in [8] amounted to 90%. Also, in test [9], the “Herbicidal action against [%] POLCO” value came to 90%. Moreover, in test [10], the “Herbicidal action against [%] VERPE” value is reported as 90%. In [11], the “Herbicidal action against [%] AMARE” value is on record as 90%. In test [12], the “Herbicidal action against [%] MATIN” value worked out at 80%.

Regarding `COC1(C(=O)NC2C=CC(C(=O)OCCSC)C2)CC(c2cc(F)cc(F)c2)=NO1` (stereo not drawn) [Example I-19], in [1], the “Herbicidal action against [%] ABUTH” value came to 80%. The “Herbicidal action against [%] ALOMY” value in test [2] came out at 80%. In addition, in test [3], the “Herbicidal action against [%] DIGSA” value was found to be 90%. In addition, the “Herbicidal action against [%] SETVI” value in [4] turned out to be 90%. For the same compound, the “Herbicidal action against [%] PHBPU” value in test [5] is listed as 80%. Further, the “Herbicidal action against [%] LOLRI” value in [6] stood at 90%. Besides, the “Herbicidal action against [%] ECHCG” value in test [7] came out at 90%. The “Herbicidal action against [%] AVEFA” value in test [8] came to 90%. In test [9], the “Herbicidal action against [%] POLCO” value was 80%. Further, in test [10], the “Herbicidal action against [%] VERPE” value amounted to 90%. In addition, the “Herbicidal action against [%] AMARE” value in test [11] is recorded as 80%. In addition, the “Herbicidal action against [%] MATIN” value in test [12] is recorded as 80%.

On to `CC1(C(=O)NC2C=CC(C(=O)OCCSCc3ccccc3)C2)CC(c2cc(F)cc(F)c2)=NO1` (stereo not drawn) [Example I-07], for which the “Herbicidal action against [%] ABUTH” value in test [1] is 80%. The “Herbicidal action against [%] ALOMY” value in [2] came to 90%. In addition, the “Herbicidal action against [%] DIGSA” value in test [3] was 90%. Moreover, in test [4], the “Herbicidal action against [%] SETVI” value was 90%. The “Herbicidal action against [%] PHBPU” value in [5] came out at 80%. Besides, the “Herbicidal action against [%] LOLRI” value in [6] is 90%. The “Herbicidal action against [%] ECHCG” value in test [7] stood at 90%. Besides, the “Herbicidal action against [%] AVEFA” value in test [8] amounted to 90%. In addition, in [9], the “Herbicidal action against [%] POLCO” value stood at 90%. Moreover, in test [10], the “Herbicidal action against [%] VERPE” value is reported as 90%. In addition, in test [11], the “Herbicidal action against [%] AMARE” value is listed as 90%. Moreover, the “Herbicidal action against [%] MATIN” value in test [12] is recorded as 80%.
